For one assay, the target named is T1, human LTA4H (Homo sapiens, UniProt P09960).
T1 sequence (P09960 1-611): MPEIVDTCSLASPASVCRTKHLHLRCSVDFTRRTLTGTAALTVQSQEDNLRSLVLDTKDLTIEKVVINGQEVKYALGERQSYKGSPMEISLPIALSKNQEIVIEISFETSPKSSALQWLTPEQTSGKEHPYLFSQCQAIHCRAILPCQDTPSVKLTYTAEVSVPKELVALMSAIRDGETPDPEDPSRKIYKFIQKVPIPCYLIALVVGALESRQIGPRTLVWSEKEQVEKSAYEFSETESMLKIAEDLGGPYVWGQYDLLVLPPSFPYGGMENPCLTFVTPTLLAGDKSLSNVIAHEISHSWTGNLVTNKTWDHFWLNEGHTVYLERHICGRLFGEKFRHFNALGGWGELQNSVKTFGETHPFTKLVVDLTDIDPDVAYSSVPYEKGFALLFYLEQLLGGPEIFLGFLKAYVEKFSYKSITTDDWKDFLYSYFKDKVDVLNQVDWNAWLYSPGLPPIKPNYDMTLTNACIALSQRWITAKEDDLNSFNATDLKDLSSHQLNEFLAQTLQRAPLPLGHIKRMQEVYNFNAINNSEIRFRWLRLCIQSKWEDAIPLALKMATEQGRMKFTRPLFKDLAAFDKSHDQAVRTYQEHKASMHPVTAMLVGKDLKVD
The experiment in a line: Human LTA4H enzyme assay (Arg-AMC substrate). The note with it: Arg-AMC 600 μM, 9 nM human LTA4H, 15 min pre-incubation; mean values of at least 3 measurements; read-out: ArgAMC IC50. It counts as biochemical. The protocol: a) Human LTA4H Enzyme Assay:
[…] (LTA4H) catalyzes the vinylogous hydrolysis of the epoxide, leukotriene A4 (LTA4) into the pro-inflammatory mediator LTB4.
For compound testing, compounds are delivered as 10 mM stock solutions in 90% DMSO (10% water) in matrix tubes. […] A final substrate concentration of 600 μM, which is around the KM value of Arg-AMC, at a final enzyme concentration of 9 nM is chosen. Upon addition of the substrate, the plate is immediately placed in a fluorescence reader and the fluorescence is measured every 10 minutes for 60 minutes using the filter setting λ excitation=380 nm and A emission=460 nm. […] Raw data is converted to rate (moles per minute) using the AMC calibration curve calculated from the AMC standards. The data is analyzed in GraphPad Prism (GraphPad software Inc.) using non-linear regression to determine IC50 values of LTA4H inhibitors.

For assay [1], the system named is LTB4 biosynthesis in human whole blood. The experiment in a line: Human whole blood assay (hWB), inhibition of LTB4 biosynthesis. In kind it is cell-based. The note with it: human blood diluted 1:3, 4 hours with compound, 10 μg/ml A23187 for 15 min, eicosanoid by ELISA; read-out: hWB IC50. The protocol: b) Human Whole Blood Assay:
Compounds are tested in a human whole blood assay (hWB) to test their ability to inhibit LTB4 biosynthesis in a human cellular system. To this end, fresh blood is collected in heparinized vacutainers by venipuncture from volunteers. Blood is diluted 1:3 with RPM (Roswell Park Memorial Institute) medium and aliquots of 200 μL are transferred to 96-well round bottom cell culture plates. For compound testing, compounds are delivered as 10 mM stock solutions in 90% DMSO in matrix tubes. […] 4 μL of compound dilution or vehicle is added to 200 μL of blood and incubated for 4 hours at 37° C. in a humidified incubator. […] Incubation is terminated by centrifugation at 300 g for 10 min at 22° C. Plasma supernatant is taken and transferred to a 96 well plate for eicosanoid determination by ELISA (Assay designs) according to the manufacturer's protocol after 1:20 dilution in assay buffer. The data is analyzed in GraphPad Prism (GraphPad software Inc.) using non-linear regression to determine IC50 values of LTA4H inhibitors.
Background: An ELISA detects its analyte on a solid surface through an enzyme-linked reagent.

These results are taken from patent US11932630B2, “Heteroaryl aminopropanol derivatives” (NOVARTIS AG, priority 2021, dated 2024).

In general, IC50 refers to the concentration needed to halve the response being measured. Turning to `CC(O)[C@@H](N)Cc1nc(-c2ccc(Oc3ncc(Br)cc3F)cc2)no1` (mixture of isomers) [Example 18, (3S)-3-amino-4-(3-(4-((5-bromo-3-fluoropyridin-2-yl)oxy)phenyl)-1,2,4-oxadiazol-5-yl)butan-2-ol], the IC50 worked out at 6.1 nM on human LTA4H and 343 nM in assay [1].
For the molecule `NC(CO)Cc1nnn(-c2ccc(Oc3ncc(Cl)cc3F)cc2)n1` (racemic) [Example 39, 2-Amino-3-(2-(4-((5-chloro-3-fluoropyridin-2-yl)oxy)phenyl)-2H-tetrazol-5-yl)propan-1-ol], the concentration for half-maximal inhibition (IC50) at human LTA4H was 2.2 nM; in assay [1], 63 nM.
As for `N[C@H](CO)Cc1nc(-c2cccc([C@H]3COc4ccccc4O3)c2)no1` [Example 01, (S)-2-amino-3-(3-(3-((S)-2,3-dihydrobenzo[b][1,4]dioxin-2-yl)phenyl)-1,2,4-oxadiazol-5-yl)propan-1-ol], the half-inhibitory concentration (IC50) in assay [1] turned out to be 91 nM.
In the case of `N[C@H](CO)Cc1nc(-c2cccc(Oc3ccc(Cl)cn3)c2)no1` [Example 02, (S)-2-amino-3-(3-(3-((5-chloropyridin-2-yl)oxy)phenyl)-1,2,4-oxadiazol-5-yl)propan-1-ol], the IC50 turned out to be 2.1 nM at human LTA4H and 72 nM in assay [1].
For `N[C@H](CO)Cc1nc(-c2cccc(Oc3ccc(OC(F)F)cn3)c2)no1` [Example 03, (S)-2-amino-3-(3-(3-((5-(difluoromethoxy)pyridin-2-yl)oxy)phenyl)-1,2,4-oxadiazol-5-yl)propan-1-ol], the IC50 in assay [1] was found to be 100 nM.
For `N[C@H](CO)Cc1nc(-c2ccc(Oc3ccc(C(F)(F)F)cn3)cc2)no1` [Example 04, (S)-2-amino-3-(3-(4-((5-(trifluoromethyl)pyridin-2-yl)oxy)phenyl)-1,2,4-oxadiazol-5-yl)propan-1-ol], the IC50 came out at 11.8 nM on human LTA4H and 327 nM in assay [1].
As for `N[C@H](CO)Cc1nc(-c2ccc(Oc3ccc(OC(F)F)cn3)cc2)no1` [Example 05, (S)-2-amino-3-(3-(4-((5-(difluoromethoxy)pyridin-2-yl)oxy)phenyl)-1,2,4-oxadiazol-5-yl)propan-1-ol], the results for the IC50 (on human LTA4H; in assay [1]) were 28.3 nM and 1850 nM, respectively.
On the same counts, the results for `N[C@H](CO)Cc1noc(-c2ccc(Oc3ccc(Cl)cn3)cc2)n1` [Example 06] are 9.4 nM and 510 nM.
Take `N[C@H](CO)Cc1nc(-c2ccc(Oc3ncc(-c4ccn[nH]4)cc3F)cc2)no1` [Example 07]: the IC50 in assay [1] turned out to be 117 nM.
In the case of `N[C@H](CO)Cc1nc(-c2cccc(Oc3ccc(-c4ccn[nH]4)cn3)c2)no1` [Example 09, (S)-3-(3-(3-((5-(1H-pyrazol-5-yl)pyridin-2-yl)oxy)phenyl)-1,2,4-oxadiazol-5-yl)-2-aminopropan-1-ol], the IC50 worked out at 2.5 nM at human LTA4H and 74 nM in assay [1].
For `N[C@H](CO)Cc1nc(-c2cccc(Oc3ccc(C(F)(F)F)cn3)c2)no1` [Example 10, (S)-2-amino-3-(3-(3-((5-(trifluoromethyl)pyridin-2-yl)oxy)phenyl)-1,2,4-oxadiazol-5-yl)propan-1-ol], the concentration for half-maximal inhibition (IC50) on human LTA4H was found to be 6.3 nM; in assay [1] it was 141 nM.
`N[C@H](CO)Cc1nc(-c2cccc([C@@H]3COc4cccnc4O3)c2)no1` [Example 11, (S)-2-amino-3-(3-(3-((R)-2,3-dihydro-[1,4]dioxino[2,3-b]pyridin-3-yl)phenyl)-1,2,4-oxadiazol-5-yl)propan-1-ol]: in assay [1], the IC50 amounted to 44 nM.
As for `N[C@H](CO)Cc1nc(-c2ccc(Oc3ccc(-c4ccn[nH]4)cn3)cc2)no1` [Example 13, (S)-3-(3-(4-((5-(1H-Pyrazol-5-yl)pyridin-2-yl)oxy)phenyl)-1,2,4-oxadiazol-5-yl)-2-aminopropan-1-ol], the IC50 in assay [1] came to 51 nM.
Regarding `N[C@H](CO)Cn1nnc(-c2cccc([C@@H]3COc4cccnc4O3)c2)n1` [Example 14, (S)-2-amino-3-(5-(3-((R)-2,3-dihydro-[1,4]dioxino[2,3-b]pyridin-3-yl)phenyl)-2H-tetrazol-2-yl)propan-1-ol], the IC50 was 2.3 nM at human LTA4H and 39 nM in assay [1].
As to `N[C@H](CO)Cc1nc(-c2cccc([C@@H]3COc4ccccc4O3)c2)no1` [Example 15, (S)-2-amino-3-(3-(3-((R)-2,3-dihydrobenzo[b][1,4]dioxin-2-yl)phenyl)-1,2,4-oxadiazol-5-yl)propan-1-ol], the values for the half-maximal inhibitory concentration (IC50) (at human LTA4H; in assay [1]) were 2.9 nM and 79 nM, respectively.
As to `N[C@H](CO)Cc1nc(-c2ccc(Oc3ccc(Cl)cn3)cc2)no1` [Example 16, (S)-2-amino-3-(3-(4-((5-chloropyridin-2-yl)oxy)phenyl)-1,2,4-oxadiazol-5-yl)propan-1-ol], the values for the concentration for half-maximal inhibition (IC50) (on human LTA4H; in assay [1]) were 2.4 nM and 229 nM, respectively.
On the same counts, the results for `C[C@H](Cc1ccccc1)Oc1ccc(-c2noc(C[C@H](N)CO)n2)cc1` [Example 17, (S)-2-amino-3-(3-(4-(((R)-1-phenylpropan-2-yl)oxy)phenyl)-1,2,4-oxadiazol-5-yl)propan-1-ol] are 16.7 nM and 297 nM.
Turning to `N[C@@H](CO)Cn1nnc(-c2ccc(Oc3ccc(-c4ccn[nH]4)cn3)cc2)n1` [Example 19, (R)-3-(5-(4-((5-(1H-pyrazol-3-yl)pyridin-2-yl)oxy)phenyl)-2H-tetrazol-2-yl)-2-aminopropan-1-ol], the half-inhibitory concentration (IC50) was determined as 4.9 nM at human LTA4H and 65 nM in assay [1].
Regarding `N[C@H](CO)Cn1nnc(-c2ccc(Oc3ccc(-c4ccn[nH]4)cn3)cc2)n1` [Example 20, (S)-3-(5-(4-((5-(1H-pyrazol-3-yl)pyridin-2-yl)oxy)phenyl)-2H-tetrazol-2-yl)-2-aminopropan-1-ol], the half-inhibitory concentration (IC50) at human LTA4H stood at 3.2 nM; in assay [1] it was 75 nM.
`N[C@H](CO)Cn1ccc(-c2ccc(Oc3ncc(-c4ccn[nH]4)cc3F)cn2)n1` [Example 21, (S)-2-amino-3-(3-(5-((3-fluoro-5-(1H-pyrazol-5-yl)pyridin-2-yl)oxy)pyridin-2-yl)-1H-pyrazol-1-yl)propan-1-ol]: the concentration for half-maximal inhibition (IC50) amounted to 3.1 nM at human LTA4H and 123 nM in assay [1].
For the molecule `N[C@H](CO)Cn1ccc(-c2cccc(Oc3ncc(Cl)cc3F)c2)n1` [Example 24, (S)-2-amino-3-(3-(3-((5-chloro-3-fluoropyridin-2-yl)oxy)phenyl)-1H-pyrazol-1-yl)propan-1-ol], the IC50 in assay [1] came out at 379 nM.
For the molecule `N[C@H](CO)Cn1cc(-c2ccc(Oc3ncc(Cl)cc3F)cc2)cn1` [Example 25, (S)-2-amino-3-(4-(4-((5-chloro-3-fluoropyridin-2-yl)oxy)phenyl)-1H-pyrazol-1-yl)propan-1-ol], the IC50 at human LTA4H amounted to 160 nM.
For the molecule `N[C@H](CO)Cn1nnc(-c2ccc(Oc3ncc(Cl)cc3F)cc2)n1` [Example 29, (S)-2-Amino-3-(5-(4-((5-chloro-3-fluoropyridin-2-yl)oxy)phenyl)-2H-tetrazol-2-yl)propan-1-ol], the concentration for half-maximal inhibition (IC50) in assay [1] was 162 nM.
On to `N[C@@H](CO)Cn1nnc(-c2ccc(Oc3ncc(Cl)cc3F)cc2)n1` [Example 30, (R)-2-Amino-3-(5-(4-((5-chloro-3-fluoropyridin-2-yl)oxy)phenyl)-2H-tetrazol-2-yl)propan-1-ol], for which, in assay [1], the concentration for half-maximal inhibition (IC50) was 69 nM.
On to `N[C@H](CO)Cn1nnc(-c2ccc(Oc3ccc(Cl)cc3)nc2)n1` [Example 35, (S)-2-Amino-3-(5-(6-(4-chlorophenoxy)pyridin-3-yl)-2H-tetrazol-2-yl)propan-1-01], for which, at human LTA4H, the IC50 worked out at 15.8 nM.
As to `N[C@H](CO)Cn1nnc(-c2ccc(Oc3ncc(-c4ncco4)cc3F)cc2)n1` [Example 38, (2S)-2-amino-3-[5-(4-[[3-fluoro-5-(1,3-oxazol-2-yl)pyridin-2-yl]oxy]phenyl)-2H-1,2,3,4-tetrazol-2-yl]propan-1-ol], the IC50 at human LTA4H came out at 7.4 nM.
